Measurements reported in article PMC10054477, “Design, Synthesis, and Biological Evaluation of Sulfonamide Methoxypyridine Derivatives as Novel PI3K/mTOR Dual Inhibitors” (Pharmaceuticals, 2023).

Assays:
MCF-7 cells = experiment: CCK-8 cell viability assay, MCF-7; format: cell-based; details: Homo sapiens, MCF7, 72 h, mean (n = 3)
Method: (§1) MCF-7 and HCT-116 cells were purchased from the Meilunbio Biotechnology Co., Ltd. (Dalian, China). Cells were cultured at 37 °C with 5% CO2, using DMEM or RPMI 1640 medium (Meilunbio, Dalian, China) with 10% (v/v) fetal bovine serum (Gibco, San Diego, CA, USA) and 1% (v/v) penicillin and streptomycin (Meilunbio, Dalian, China). CCK-8 assay was used to determine the inhibitory effect in vitro. In short, cells were incubated into 96-well plates at the rate of 5000 cells per well. After 24 h of incubation, 100 μL medium was added, which contained a specific concentration of the test compound. After 72 h, 10 μL CCK-8 regent was added and the plate was incubated at 37 °C, 5% CO2 for 1 h. The optical density of each hole at 450 nm was read by a BioTek TS-800 microplate reader. GraphPad Prism 9.3.1 software was used to calculate the IC50 value.

HCT-116 cells = experiment: CCK-8 cell viability assay, HCT-116; format: cell-based; details: Homo sapiens, mean (n = 3)
Method: as §1

PI3Kα = target: T1, PI3Kα (Homo sapiens, UniProt P42336); experiment: ADP-Glo kinase assay, PI3Kα enzyme inhibition; format: biochemical; details: for inhibition at 0.001 µM: at 1 nM; for IC50: mean (n = 2)
T1 construct: purchased SignalChem P27-122DH
T1 sequence (P42336 whole entry): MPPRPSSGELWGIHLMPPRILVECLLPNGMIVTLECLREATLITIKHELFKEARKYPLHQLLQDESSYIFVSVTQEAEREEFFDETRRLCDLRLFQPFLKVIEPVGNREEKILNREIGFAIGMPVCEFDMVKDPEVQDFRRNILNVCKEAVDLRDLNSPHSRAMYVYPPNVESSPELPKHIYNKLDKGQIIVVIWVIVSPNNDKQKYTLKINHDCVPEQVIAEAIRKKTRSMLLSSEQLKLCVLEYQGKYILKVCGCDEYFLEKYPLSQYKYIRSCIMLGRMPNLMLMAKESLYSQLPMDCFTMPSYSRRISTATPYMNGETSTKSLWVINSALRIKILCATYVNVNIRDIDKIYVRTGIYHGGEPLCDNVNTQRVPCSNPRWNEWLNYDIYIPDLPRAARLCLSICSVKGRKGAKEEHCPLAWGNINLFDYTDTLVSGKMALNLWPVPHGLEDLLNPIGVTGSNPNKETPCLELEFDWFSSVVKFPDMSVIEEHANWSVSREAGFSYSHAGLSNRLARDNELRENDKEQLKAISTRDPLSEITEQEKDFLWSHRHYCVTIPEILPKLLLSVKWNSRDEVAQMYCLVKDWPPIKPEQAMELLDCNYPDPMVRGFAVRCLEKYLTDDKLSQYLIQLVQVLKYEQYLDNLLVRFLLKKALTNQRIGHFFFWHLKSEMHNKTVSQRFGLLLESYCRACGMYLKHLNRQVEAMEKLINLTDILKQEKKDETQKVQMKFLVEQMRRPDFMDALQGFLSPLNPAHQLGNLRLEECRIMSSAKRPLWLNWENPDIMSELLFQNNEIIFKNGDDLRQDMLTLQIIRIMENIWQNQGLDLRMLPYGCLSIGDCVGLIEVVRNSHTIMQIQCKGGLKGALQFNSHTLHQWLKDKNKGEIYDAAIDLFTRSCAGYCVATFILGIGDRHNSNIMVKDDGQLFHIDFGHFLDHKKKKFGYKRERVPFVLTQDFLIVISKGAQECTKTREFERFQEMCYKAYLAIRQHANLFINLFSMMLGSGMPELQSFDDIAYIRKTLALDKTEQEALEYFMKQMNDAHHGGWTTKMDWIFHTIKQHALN
T1 sequence (P27986 whole entry partner): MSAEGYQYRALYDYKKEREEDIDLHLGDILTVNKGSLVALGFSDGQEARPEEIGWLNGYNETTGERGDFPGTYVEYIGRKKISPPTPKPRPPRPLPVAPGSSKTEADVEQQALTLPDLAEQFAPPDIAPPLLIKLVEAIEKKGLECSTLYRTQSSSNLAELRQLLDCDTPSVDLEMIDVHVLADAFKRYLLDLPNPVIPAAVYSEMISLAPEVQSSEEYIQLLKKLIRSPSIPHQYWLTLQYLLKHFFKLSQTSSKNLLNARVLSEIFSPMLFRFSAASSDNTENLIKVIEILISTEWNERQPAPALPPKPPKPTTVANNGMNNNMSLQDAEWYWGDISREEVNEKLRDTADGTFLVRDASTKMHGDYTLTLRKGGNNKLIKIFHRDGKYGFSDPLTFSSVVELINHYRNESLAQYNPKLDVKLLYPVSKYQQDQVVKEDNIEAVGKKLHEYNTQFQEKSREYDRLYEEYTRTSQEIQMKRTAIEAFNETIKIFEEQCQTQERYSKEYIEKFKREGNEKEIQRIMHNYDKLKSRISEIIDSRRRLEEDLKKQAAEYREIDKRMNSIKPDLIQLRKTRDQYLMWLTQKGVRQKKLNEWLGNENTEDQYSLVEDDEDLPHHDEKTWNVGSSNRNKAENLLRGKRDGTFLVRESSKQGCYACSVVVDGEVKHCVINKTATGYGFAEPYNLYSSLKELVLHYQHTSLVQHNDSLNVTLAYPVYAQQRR
Method: The enzymatic inhibitory assays of all target compounds against PI3Kα were performed with the ADP-Glo assay (Promega, Madison, WI, USA, catalog No. V9102/3). Briefly, compounds were continuously diluted to a certain concentration. […] The mixture was added to a 96-well plate and incubated in a dark place at ambient temperature for 40 min. Then, the kinase reaction was stopped by adding of ADP-Glo reagent and the plate was incubated again at ambient temperature for another 40 min. The kinase detection reagent was added and the signal was collected via PerkinElmer Envision plate reader (PE, Boston, MA, USA).

Structure (SMILES) | IC50 (MCF-7 cells; Table 3) [µM] | IC50 (HCT-116 cells; Table 3, 72 h) [µM] | inhibition at 0.001 µM (PI3Kα; Table 3) [%] | IC50 (MCF-7 cells; Table 1) [µM] | IC50 (HCT-116 cells; Table 1, 72 h) [µM] | inhibition at 0.001 µM (PI3Kα; Table 1) [%] | also measured
COc1ncc(-c2ccc3nccc(-c4ncc(C(=O)NCC5CC5)o4)c3c2)cc1NS(=O)(=O)c1ccc(F)cc1F [22h, N-(cyclopropylmethyl)-2-(6-(5-((2,4-difluorophenyl)sulfonamido)-6-methoxypyridin-3-yl)quinolin-4-yl)oxazole-5-carboxamide] | 0.35 ± 0.11 | 0.06 ± 0.01 | 78 | – | – | – | IC50 (PI3Kα): 0.37 nM
COCCCNC(=O)c1cnc(-c2ccnc3ccc(-c4cnc(OC)c(NS(=O)(=O)c5ccc(F)cc5F)c4)cc23)o1 [22f, 2-(6-(5-((2,4-difluorophenyl)sulfonamido)-6-methoxypyridin-3-yl)quinolin-4-yl)-N-(3-methoxypropyl)oxazole-5-carboxamide] | 0.29 ± 0.1 | 0.06 ± 0.02 | 78 | – | – | – | IC50 (PI3Kα): 0.38 nM
COc1ncc(-c2cnc3ncnc(NC4CC4)c3c2)cc1NS(=O)(=O)c1ccc(F)cc1F [17b, N-(5-(4-(cyclopropylamino)pyrido[2,3-d]pyrimidin-6-yl)-2-methoxypyridin-3-yl)-2,4-difluorobenzenesulfonamide] | – | – | – | – | – | – | IC50 (MCF-7 cells; Table 2): 0.91 ± 0.39 µM; IC50 (HCT-116 cells; Table 2, 72 h): 0.35 ± 0.17 µM; inhibition at 0.001 µM (PI3Kα; Table 2): 21%
COc1ncc(-c2ccc3c(c2)sc2c(N4CCOCC4)ncnc23)cc1NS(=O)(=O)c1ccc(F)cc1F [11a, 2,4-difluoro-N-(2-methoxy-5-(4-morpholinobenzo[4,5]thieno[3,2-d]pyrimidin-7-yl)pyridin-3-yl)benzenesulfonamide] | – | – | – | 0.96 ± 0.23 | > 1 | 10 | –
COc1ncc(-c2cnc3ncnc(NCCN(C)C)c3c2)cc1NS(=O)(=O)c1ccc(F)cc1F [17d, N-(5-(4-((2-(dimethylamino)ethyl)amino)pyrido[2,3-d]pyrimidin-6-yl)-2-methoxypyridin-3-yl)-2,4-difluorobenzenesulfonamide] | – | – | – | – | – | – | IC50 (MCF-7 cells; Table 2): 0.73 ± 0.19 µM; IC50 (HCT-116 cells; Table 2, 72 h): 0.52 ± 0.23 µM; inhibition at 0.001 µM (PI3Kα; Table 2): 31%
CCCCNc1ncnc2ncc(-c3cnc(OC)c(NS(=O)(=O)c4ccc(F)cc4F)c3)cc12 [17c, N-(5-(4-(butylamino)pyrido[2,3-d]pyrimidin-6-yl)-2-methoxypyridin-3-yl)-2,4-difluorobenzenesulfonamide] | – | – | – | – | – | – | IC50 (MCF-7 cells; Table 2): > 1 µM; IC50 (HCT-116 cells; Table 2, 72 h): 0.83 ± 0.25 µM; inhibition at 0.001 µM (PI3Kα; Table 2): 21%
CNC(=O)c1cnc(-c2ccnc3ccc(-c4cnc(OC)c(NS(=O)(=O)c5ccc(F)cc5F)c4)cc23)o1 [22b, 2-(6-(5-((2,4-difluorophenyl)sulfonamido)-6-methoxypyridin-3-yl)quinolin-4-yl)-N-methyloxazole-5-carboxamide] | 0.39 ± 0.08 | 0.15 ± 0.04 | 74 | – | – | – | –
COc1ncc(-c2ccc3c(c2)sc2c(OCCN(C)C)ncnc23)cc1NS(=O)(=O)c1ccc(F)cc1F [11k, N-(5-(4-(2-(dimethylamino)ethoxy)benzo[4,5]thieno[3,2-d]pyrimidin-7-yl)-2-methoxypyridin-3-yl)-2,4-difluorobenzenesulfonamide] | – | – | – | 0.69 ± 0.11 | 0.25 ± 0.08 | 13 | –
CCCCNc1ncnc2c1sc1cc(-c3cnc(OC)c(NS(=O)(=O)c4ccc(F)cc4F)c3)ccc12 [11i, N-(5-(4-(butylamino)benzo[4,5]thieno[3,2-d]pyrimidin-7-yl)-2-methoxypyridin-3-yl)-2,4-difluorobenzenesulfonamide] | – | – | – | > 1 | > 1 | 15 | –
COc1ncc(-c2ccc3c(c2)sc2c(NCCCN4CCOCC4)ncnc23)cc1NS(=O)(=O)c1ccc(F)cc1F [11j, N-(2-methoxy-5-(4-((3-morpholinopropyl)amino)benzo[4,5]thieno[3,2-d]pyrimidin-7-yl)pyridin-3-yl)-2,4-difluorobenzenesulfonamide] | – | – | – | > 1 | > 1 | 10 | –
COc1ncc(-c2ccc3nccc(-c4ncc(C(=O)NCCc5ccc(Cl)cc5)o4)c3c2)cc1NS(=O)(=O)c1ccc(F)cc1F [22l, N-(4-chlorophenethyl)-2-(6-(5-((2,4-difluorophenyl)sulfonamido)-6-methoxypyridin-3-yl)quinolin-4-yl)oxazole-5-carboxamide] | > 1 | > 1 | 15 | – | – | – | –
